Results published in patent publication US12060349B2, “Glucosylceramide synthase inhibitors” (Genzyme Corporation, priority 2012, dated 2024).
Read-outs that look alike come from different tables or passages of the source.

Columns and labels:
[1] = test system: GM3 expression on the cell surface, B16 mouse melanoma cells; test: cell based phenotypic assay, cell surface GM3 by antibody mediated immunofluorescence, B16 (GM3 B16 IC50); conditions: Mus musculus, 50% inhibition of GM3 expression on the cell surface
Method in brief: (§1)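 B16 mouse and C32 human melanoma cells; cell-surface GM3 measured by antibody-mediated immunofluorescence, giving IC50.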

B16 mouse melanoma cells = test: cell viability in the B16 cell-based assay (Viability, B16 IC50); conditions: Mus musculus
Method in brief: (§2)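 Viability readouts were run alongside the GM3 cell-surface assay in the same B16 and C32 cultures. A figure above 10 indicates no cell death.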

[2] = biological target: T1, glucosylceramide synthase (Homo sapiens, UniProt Q16739); test: microsomal assay measuring conversion of ceramide to glucosylceramide by HPLC (GCS IC50); type: biochemical; conditions: concentration causing 50% inhibition of glucosylceramide synthase activity
T1 construct: Microsomes were isolated from A375 human melanoma cells; endogenous in cells; host or cells: A375 human melanoma cells (microsomal fraction, 100,000 g pellet)
T1 sequence (Q16739 1-394): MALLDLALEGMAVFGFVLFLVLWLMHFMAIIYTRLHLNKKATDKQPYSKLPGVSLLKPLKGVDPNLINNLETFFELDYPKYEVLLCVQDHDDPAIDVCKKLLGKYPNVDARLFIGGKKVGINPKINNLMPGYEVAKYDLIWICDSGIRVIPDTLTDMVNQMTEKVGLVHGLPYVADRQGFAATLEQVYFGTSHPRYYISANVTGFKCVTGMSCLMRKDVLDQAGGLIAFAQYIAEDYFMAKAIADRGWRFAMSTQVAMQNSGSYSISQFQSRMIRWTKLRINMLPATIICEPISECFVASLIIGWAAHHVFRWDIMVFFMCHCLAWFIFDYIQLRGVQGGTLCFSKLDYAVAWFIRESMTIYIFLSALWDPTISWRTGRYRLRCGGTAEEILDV
Method in brief: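 IC50 is the compound concentration halving glucosylceramide synthase activity. Activity was measured in microsomes, with HPLC quantifying glucosylceramide formed from ceramide.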

C32 human melanoma cells = test: cell viability in the C32 cell-based assay (Viability, C32 IC50); conditions: Homo sapiens, concentration causing 50% cell death, values greater than 10 represent a lack of cell death
Method in brief: as §2

[3] = test system: GM3 expression on the cell surface, C32 human melanoma cells; test: cell based phenotypic assay, cell surface GM3 by antibody mediated immunofluorescence, C32 (GM3 C32 IC50); conditions: Homo sapiens, 50% inhibition of GM3 expression on the cell surface
Method in brief: as §1

[4] = read-out: GM3 B16 IC50, B16 mouse melanoma cells
[5] = B16, read-out: Viability, B16 IC50
[6] = C32, read-out: Viability, C32 IC50, C32 cells
[7] = read-out: GM3 C32 IC50, C32 human melanoma cells
[8] = B16 mouse melanoma cells, read-out: GM3 B16 IC50
[9] = B16, B16 cells, concentration causing 50% cell death, values greater than 10 represent a lack of cell death, read-out: Viability, B16 IC50
[10] = C32, C32 cells, read-out: Viability, C32 IC50
[11] = C32 human melanoma cells, read-out: GM3 C32 IC50

IC50 [1, 8] [nM] | IC50 [3, 11] [nM] | Structure (SMILES) | IC50 [1, 4] [nM] | IC50 (B16 mouse melanoma cells; [5]) [nM] | IC50 [2] [nM] | IC50 (C32 human melanoma cells; [6]) [nM] | IC50 [3, 7] [nM] | IC50 (B16 mouse melanoma cells; [9]) [nM] | IC50 (C32 human melanoma cells; [10]) [nM]
– | – | COCCOc1cccc(-c2ccc(C(C)(C)NC(=O)OC3CN4CCC3CC4)cc2)c1 (stereo not drawn) [Example 167, Quinuclidin-3-yl (2-(3′-(2-methoxyethoxy)-[1,1′-biphenyl]-4-yl)propan-2-yl)carbamate] | 109 | ≥ 10000 | 10.4 | 1000 | 5.31 | – | –
79.3 | 3.34 | COCCOc1cccc(-c2ccc(C(C)(C)NC(=O)OC3CCN4CCC3CC4)cc2)c1 (stereo not drawn) [Example 168, 1-Azabicyclo[3.2.2]nonan-4-yl (2-(3′-(2-methoxyethoxy)-[1,1′-biphenyl]-4-yl)propan-2-yl)carbamate] | – | – | 5.56 | – | – | ≥ 10000 | 1000
283 | 18 | COCCOc1cccc(-c2ccc(C(C)(C)NC(=O)N3CCN4CCC3CC4)cc2)c1 [Example 169, N-(2-(3′-(2-Methoxyethoxy)-[1,1′-biphenyl]-4-yl)propan-2-yl)-1,4-diazabicyclo[3.2.2]nonane-4-carboxamide] | – | – | 257 | – | – | ≥ 10000 | 1000
– | – | COCCOc1ccc(-c2cccc(C(C)(C)NC(=O)OC3CN4CCC3CC4)c2)cc1 (stereo not drawn) [Example 170, Quinuclidin-3-yl (2-(4′-(2-methoxyethoxy)-[1,1′-biphenyl]-3-yl)propan-2-yl)carbamate] | 29.5 | ≥ 10000 | 26.7 | ≥ 10000 | 4.94 | – | –
11.9 | 1.45 | COCCOc1ccc(-c2cccc(C(C)(C)NC(=O)OC3CCN4CCC3CC4)c2)cc1 (stereo not drawn) [Example 171, 1-Azabicyclo[3.2.2]nonan-4-yl (2-(4′-(2-methoxyethoxy)-[1,1′-biphenyl]-3-yl)propan-2-yl)carbamate] | – | – | 32.5 | – | – | 74.6 | 3980
– | – | COCCCOc1ccc(-c2ccc(C(C)(C)NC(=O)OC3CN4CCC3CC4)cc2)cc1 (stereo not drawn) [Example 172, Quinuclidin-3-yl (2-(4′-(3-methoxypropoxy)-[1,1′-biphenyl]-4-yl)propan-2-yl)carbamate] | 66.6 | 8290 | 2.41 | ≥ 10000 | 1.56 | – | –
386 | 22.5 | COCCCOc1ccc(-c2ccc(C(C)(C)NC(=O)N3CCN4CCC3CC4)cc2)cc1 [Example 174, N-(2-(4′-(3-Methoxypropoxy)-[1,1′-biphenyl]-4-yl)propan-2-yl)-1,4-diazabicyclo[3.2.2]nonane-4-carboxamide] | – | – | 134 | – | – | ≥ 10000 | 1000
1.75 | 0.497 | COCCCOc1ccc(-c2ccc(C3(NC(=O)NC4(C)CCN5CCC4CC5)CC3)cc2)cc1 (stereo not drawn) [Example 177, 1-(1-(4′-(3-Methoxypropoxy)-[1,1′-biphenyl]-4-yl)cyclopropyl)-3-(4-methyl-1-azabicyclo[3.2.2]nonan-4-yl)urea] | – | – | 1.59 | – | – | ≥ 10000 | ≥ 10000
67.9 | 2.61 | COCCCOc1ccc(-c2ccc(C3(NC(=O)OC4CCN5CCC4CC5)CC3)cc2)cc1 (stereo not drawn) [Example 178, 1-Azabicyclo[3.2.2]nonan-4-yl (1-(4′-(3-methoxypropoxy)-[1,1′-biphenyl]-4-yl)cyclopropyl)carbamate] | – | – | 3.54 | – | – | ≥ 10000 | 7100
– | – | CC(C)(NC(=O)OC1CN2CCC1CC2)c1ccc(-c2ccc(OCCn3cccn3)cc2)cc1 (stereo not drawn) [Example 179, Quinuclidin-3-yl (2-(4′-(2-(1H-pyrazol-1-yl)ethoxy)-[1,1′-biphenyl]-4-yl)propan-2-yl)carbamate] | 95.2 | 8730 | 6.73 | 3160 | 4.99 | – | –
5.15 | 0.587 | CC(C)(NC(=O)NC1(C)CCN2CCC1CC2)c1ccc(-c2ccc(OCCn3cccn3)cc2)cc1 (stereo not drawn) [Example 181, 1-(2-(4′-(2-(1H-Pyrazol-1-yl)ethoxy)-[1,1′-biphenyl]-4-yl)propan-2-yl)-3-(4-methyl-1-azabicyclo[3.2.2]nonan-4-yl)urea] | – | – | 2.33 | – | – | 1000 | 1000
– | – | CC(C)(NC(=O)OC1CN2CCC1CC2)c1ccc(-c2ccc(OCCn3ccnn3)cc2)cc1 (stereo not drawn) [Example 182, Quinuclidin-3-yl (2-(4′-(2-(1H-1,2,3-triazol-1-yl)ethoxy)-[1,1′-biphenyl]-4-yl)propan-2-yl)carbamate] | 388 | 3160 | 43.1 | 1000 | 13.1 | – | –
99.9 | 3.87 | CC(C)(NC(=O)NC1(C)CCN2CCC1CC2)c1ccc(-c2ccc(OCCn3ccnn3)cc2)cc1 (stereo not drawn) [Example 185, 1-(2-(4′-(2-(1H-1,2,3-Triazol-1-yl)ethoxy)-[1,1′-biphenyl]-4-yl)propan-2-yl)-3-(4-methyl-1-azabicyclo[3.2.2]nonan-4-yl)urea] | – | – | 12.9 | – | – | 3160 | 1000
106 | 7.74 | CC(C)(NC(=O)OC1CCN2CCC1CC2)c1ccc(-c2ccc(OCCCn3ccnn3)cc2)cc1 (stereo not drawn) [Example 187, 1-Azabicyclo[3.2.2]nonan-4-yl (2-(4′-(3-(1H-1,2,3-triazol-1-yl)propoxy)-[1,1′-biphenyl]-4-yl)propan-2-yl)carbamate] | – | – | 20.2 | – | – | ≥ 10000 | 1000
365 | 77.4 | CC(C)(NC(=O)N1CCN2CCC1CC2)c1ccc(-c2ccc(OCCCn3ccnn3)cc2)cc1 [Example 188, N-(2-(4′-(3-(1H-1,2,3-Triazol-1-yl)propoxy)-[1,1′-biphenyl]-4-yl)propan-2-yl)-1,4-diazabicyclo[3.2.2]nonane-4-carboxamide] | – | – | 597 | – | – | ≥ 10000 | 1000
– | – | CC(C)(NC(=O)OC1CN2CCC1CC2)c1ccc(-c2ccc(OCCCC#N)cc2)cc1 (stereo not drawn) [Example 189, Quinuclidin-3-yl (2-(4′-(3-cyanopropoxy)-[1,1′-biphenyl]-4-yl)propan-2-yl)carbamate] | 86.5 | ≥ 10000 | 9.57 | 8470 | 3.22 | – | –

Structure (SMILES) | IC50 [1, 8] [nM] | IC50 [3, 11] [nM] | IC50 [1, 4] [nM] | IC50 (B16 mouse melanoma cells; [5]) [nM] | IC50 [2] [nM] | IC50 (C32 human melanoma cells; [6]) [nM] | IC50 [3, 7] [nM] | IC50 (B16 mouse melanoma cells; [9]) [nM] | IC50 (C32 human melanoma cells; [10]) [nM]
COCCCOc1ccc(-c2ccc(C(C)(C)NC(=O)NC3(C)CN4CCC3CC4)cc2)cc1 (stereo not drawn) [Example 173, 1-(2-(4′-(3-Methoxypropoxy)-[1,1′-biphenyl]-4-yl)propan-2-yl)-3-(3-methylquinuclidin-3-yl)urea] | 20.3 | 0.766 | – | – | 1.98 | – | – | ≥ 10000 | ≥ 10000
COCCCOc1ccc(-c2ccc(C3(NC(=O)NC4(C)CN5CCC4CC5)CC3)cc2)cc1 (stereo not drawn) [Example 176, 1-(1-(4′-(3-Methoxypropoxy)-[1,1′-biphenyl]-4-yl)cyclopropyl)-3-(3-methylquinuclidin-3-yl)urea] | 22 | 1.47 | – | – | 4.1 | – | – | ≥ 10000 | ≥ 10000
CC(C)(NC(=O)NC1(C)CN2CCC1CC2)c1ccc(-c2ccc(OCCn3cccn3)cc2)cc1 (stereo not drawn) [Example 180, 1-(2-(4′-(2-(1H-Pyrazol-1-yl)ethoxy)-[1,1′-biphenyl]-4-yl)propan-2-yl)-3-(3-methylquinuclidin-3-yl)urea] | 46.3 | 1.81 | – | – | 5.3 | – | – | 3160 | 3160
CC(C)(NC(=O)NC1(C)CN2CCC1CC2)c1ccc(-c2ccc(OCCn3ccnn3)cc2)cc1 (stereo not drawn) [Example 183, 1-(2-(4′-(2-(1H-1,2,3-Triazol-1-yl)ethoxy)-[1,1′-biphenyl]-4-yl)propan-2-yl)-3-(3-methylquinuclidin-3-yl)urea] | 969 | 10.2 | – | – | 31.6 | – | – | 5620 | 2510
CCC1(NC(=O)NC(C)(C)c2ccc(-c3ccc(OCCn4ccnn4)cc3)cc2)CN2CCC1CC2 (stereo not drawn) [Example 184, 1-(2-(4′-(2-(1H-1,2,3-Triazol-1-yl)ethoxy)-[1,1′-biphenyl]-4-yl)propan-2-yl)-3-(3-ethylquinuclidin-3-yl)urea] | 188 | 3.46 | – | – | 21.1 | – | – | 3160 | 1000
